Assay results taken from patent US10351539B2, “Macrocyclic complexes, their process of preparation and use as PET imaging agents” (INSTITUT NATIONAL DE LA SANTE ET DE LA RECHERCHE MEDICALE …, priority 2014, dated 2019).
Like-named read-outs stand apart in the source and are kept apart here.

Columns and labels:
[1] = Biodistribution in healthy and SRC bearing rats at 1 h after i.v. injection of radiolabelled compounds; format: in vivo; settings: mean ± SD (n = 3)
Experimental: (§1) Quantitative biodistribution of radiolabelled compounds was determined in rats: healthy animals as well as rats with primary grade II orthotopic chondrosarcoma at stage Day-30 after induction. The chondrosarcoma model was the Swarm Rat Chondrosarcoma model (SRC) implanted in paratibial location. Radiolabelled compounds (5-10 Mbq/animal) were i.v. administered in the caudal vein of animals being anesthetized of mixture of ketamine (58 mg/kg i.p.) (Imalgéne 500®) and xylazine (6 mg/kg i.p.) (Rompun® 2%, Bayer, France). One hour after injection, animals were then sacrificed by CO2 inhalation, dissected and organs of interest removed, weighed and their radioactivity counted using a gamma counter (Model 1480 Wizard, Perkin Elmer Life Sciences, Boston, USA). Organs collected were blood, muscle, knee, kidneys, liver, thoracic ribs, bladder for both healthy and chondrosarcoma bearing rats. For SRC animals, tumour was also sampled. After radioactive decay correction, results were expressed for each organ as % injected dose per gram (% ID/g) and averaged per group.

[2] = Study 3: quantitative biodistribution of ^64Cu-5 in rats; format: in vivo
Experimental: as §1, with “USA).” for “USA). Organs collected were blood, muscle, knee, kidneys, liver, thoracic ribs, bladder for both healthy and chondrosarcoma bearing rats.”, “tumor” for “tumour”
The comparison was carried out between ^64Cu-5 and ^99mTc-NTPC, the NTPC ligand having the following structure: […]

[3] = Maurizis et al. 2000, 7.4 MBq/Kg; cited from earlier work
[4] = i.v., 5-10 MBq/animal, one hour after injection

| Structure (SMILES) | Tumor ([1]; SRC (Swarm Rat Chondrosarcoma) bearing rats) [% ID/g] | Articular Cartilage ([1]; healthy and SRC bearing rats) [% ID/g] | Bladder ([1]; healthy and SRC bearing rats) [% ID/g] | Blood ([1]; healthy and SRC bearing rats) [% ID/g] | Kidney ([1]; healthy and SRC bearing rats) [% ID/g] | Muscle ([1]; healthy and SRC bearing rats) [% ID/g] | Uptake in kidneys compared to ^99mTc-NTPC [2] | Uptake in liver [2] | Uptake in target organs (intervertebral disc and articular cartilage) compared to ^99mTc-NTPC [2] | Articular Cartilage [2, 4] [% ID/g] | Blood [2, 4] [% ID/g] | Intervertebral disc [2, 4] [% ID/g] | Kidney [2, 4] [% ID/g] | Elimination compared to ^99mTc-NTPC ([2]; indicated by accumulation in kidneys) | In vivo stability (Cu is not released) ([2]; inferred from liver uptake) | Articular Cartilage [3] [% ID/g] | Blood [3] [% ID/g] | Intervertebral disc [3] [% ID/g] | Kidney [3] [% ID/g] | Liver [3] [% ID/g] |
| --- | --- | --- | --- | --- | --- | --- | --- | --- | --- | --- | --- | --- | --- | --- | --- | --- | --- | --- | --- | --- |
| CC[N+](CC)(CC)CCCN1CCCNCCNCCCNCC1.[64Cu+2] [^64Cu-5, [^64Cu]—N,N,N-Triethyl-3-(1,4,8,11-tetraazacyclotetradecan-1-yl)propan-1-aminium copper(II)] | 5.2 ± 2.1 | 5.9 ± 2.3 | 66.5 ± 14.4 | 0.8 ± 1.2 | 27.5 ± 10.1 | 1.5 ± 1.2 | higher uptake | undetectable | higher uptake | 5.9 ± 2.3 | 0.8 ± 1.2 | 3.5 ± 0.6 | 27.5 ± 10.1 | good elimination | stable | – | – | – | – | – |
| CC[N+](CC)(CC)CCCN1CCCNCCNCCCNCC1 [^99mTc-NTPC, metal not drawn] | – | – | – | – | – | – | – | – | – | – | – | – | – | – | – | 0.52 ± 0.08 | 0.22 ± 0.05 | 0.36 ± 0.09 | 2.96 ± 0.36 | 4.34 ± 0.47 |
